The values below are quoted from earlier work in patent US6174513A, “Stabilization of peptides and proteins for radiopharmaceutical use” (priority 1998, dated 2001).

The structures appear in SMILES notation.

This data set relates to somatostatin receptors in a variety of human tumors.

Consider `C[C@@H](O)[C@@H]1NC(=O)[C@H](CCCCN)NC(=O)[C@@H](Cc2c[nH]c3ccccc23)NC(=O)[C@H](Cc2ccccc2)NC(=O)[C@@H](NC(=O)[C@H](N)Cc2ccccc2)CSSC[C@@H](C(=O)N[C@H](CO)[C@@H](C)O)NC1=O` [Octreotide], for which the “Binding affinity to somatostatin receptors” value was “very high binding affinity”.
